*1 amine or outer side, *2 acyl side, *3 side chain or, on linkers, in order; H or OH if unused. Where a SMILES comes first, the peptide text is derived from it. Where no end group is shown, it is not given here. Side-chain parts run from the residue outwards. [ ]: non-standard residue; d: D form. The star is where a group is joined. X1 = O=C(O)CCCCCCCCCCCCCCCCCCC(=O)NCC1CCC(C(=O)*)CC1; C18 diacid = O=C(O)CCCCCCCCCCCCCCCCC(=O)*; γGlu = O=C(O)[C@H](CCC(=O)[*:2])N[*:1]; Nle = CCCC[C@H](N)C(=O)O; AEEA = NCCOCCOCC(=O)O; Aib = CC(C)(N)C(=O)O
Key:
Format in all cases: physicochemical
[1] = Chemical stability: HMWP formation by SEC-MS; details: 37° C., 4 weeks, 250 μM, pH 7.4
Protocol: The aim of this study is to determine the chemical stability of GIP derivative compositions. As a measure of stability of the GIP derivative composition, the formation of high molecular weight peptide formation (% HMWP) as a function of time was analysed by size-exclusion chromatography (SEC-MS). Further, the purity loss of the GIP derivative compositions was measured by LCMS. Samples for chemical stability assays were freshly prepared before each assay. […] The pH of the sample was adjusted to the desired value using appropriate amounts of concentrated NaOH and HCl. […] Formation of covalent oligomers (HMWPs) was analysed and identified by a SEC-MS method. […] The LC system was coupled to both a TUV detector operated at 215 nm, 10 Hz and a high resolution QToF mass spectrometer from Waters (Synapt G2S) operated in positive ion mode and m/z range of 100 to 4000 with normal resolution setting. Lock mass correction against Leu-Enkephalin was done every 31 sec. Spectra were processed in MassLynx version 4.1 and MaxEnt deconvoluted.

[2] = Chemical stability: purity loss by LCMS; details: 37° C., 4 weeks, 250 μM, pH 7.4
Protocol: The aim of this study is to determine the chemical stability of GIP derivative compositions. As a measure of stability of the GIP derivative composition, the formation of high molecular weight peptide formation (% HMWP) as a function of time was analysed by size-exclusion chromatography (SEC-MS). Further, the purity loss of the GIP derivative compositions was measured by LCMS. Samples for chemical stability assays were freshly prepared before each assay. […] The pH of the sample was adjusted to the desired value using appropriate amounts of concentrated NaOH and HCl. […] The column oven was kept at 55° C. […] The solvents were pumped from a binary solvent manager system and mixed on the high pressure side in a mixer with a volume of 50 μl. The gradient and flow can be seen in table 4: [table] A Flow-through-needle auto sampler at 8° C. was used to inject 1 μl of each sample. The effluent passed through a tunable UV detector (TUV) tuned to 215 nm. The outlet from the UV detector passed to the electrospray source of the mass spectrometer. The capillary was held at 3 kV and dry nitrogen gas was purged at a flow of 750 I/h and a temperature of 250° C. The source block was kept at 120° C. and the large bore cone was flushed with nitrogen at 50 I/h with standard electrode potentials on the rest of the instrument. The MS was operated in high resolution mode with a nominal resolution of 35000. The ToF analyser was operated in ADC mode with an m/z window from 100-2000.

[3] = Dynamic Light Scattering Stability Index (DLS-SI); details: 250 μM, pH 7.4, 4 weeks at 25° C.
[4] = ThT fibrillation assay (physical stability); details: 250 μM, pH 7.4, 37° C., 45 hours of incubation
Protocol: The Thioflavin T assay was performed as outlined in Schlein (2017), AAPS J, 19(2), 397-408.
This has traditionally been measured by visual inspection of the sample. However, that kind of measurement is very cumbersome and depending on the observer. Therefore, the application of a small molecule indicator probe is much more advantageous. Thioflavin T (ThT) is such a probe and has a distinct fluorescence signature when binding to fibrils [Naiki et al. (1989) Anal. Biochem. 177, 244-249; LeVine (1999) Methods. Enzymol. 309, 274-284].
The time course for fibril formation can be described by a sigmoidal curve with the following expression [Nielsen et al. (2001) Biochemistry 40, 6036-6046]:
Here, F is the ThT fluorescence at the time t. The constant t0 is the time needed to reach 50% of maximum fluorescence. The two important parameters describing fibril formation are the lag-time calculated by t0−2τ and the apparent rate constant kapp 1/τ.
Few of those intermediates nucleate to form a template onto which further intermediates may assembly and the fibrillation proceeds. The lag-time corresponds to the interval in which the critical mass of nucleus is built up and the apparent rate constant is the rate with which the fibril itself is formed.
Samples are prepared freshly before each assay. The drug substance was solved with 250 μM of the GIP derivative in 8 mM phosphate, 14 mg/mL propylene glycol, 58 mM phenol, pH 7.4. The pH of the sample was adjusted to the desired value using appropriate amounts of concentrated NaOH and HCl. Thioflavin T was added to the samples from a stock solution in H2O to a final concentration of 1 μM.
Sample aliquots of 200 μl were placed in each well of a 96 well microtiter plate (Packard OptiPlate™-96, white polystyrene). Four replica of each sample (corresponding to one test condition) was placed in one column of wells. The plate was sealed with Scotch Pad (Qiagen).
Incubation, shaking and measurement of the ThT fluorescence emission were done in a Fluoroskan Ascent FL fluorescence platereader (Thermo Labsystems). […] Fluorescence measurement was done using excitation through a 444 nm filter and measurement of emission through a 485 nm filter.
Each run was initiated by incubating the plate at the assay temperature for 10 min. The plate was measured every 20 minutes for a desired period of time. Between each measurement, the plate was shaken and heated as described.
After completion of the ThT assay the replica of each sample was pooled and centrifuged at 20000 rpm for 30 minutes at 18° C. The supernatant was filtered through a 0.22 μm filter and an aliquot was transferred to a HPLC vial. The concentration of the filtered sample relative to the initial sample (in percentage) was reported as the recovery.
The measurement points were saved in Microsoft Excel format for further processing and curve drawing and fitting was performed using GraphPad Prism. […] The data points were a mean of the four replica and shown with standard deviation error bars. Only data obtained in the same experiment (i.e. samples on the same plate) were presented in the same graph ensuring a relative measure of fibrillation between experiments.
The data set may be fitted to Eq. (1).

| Molecule | HMWP formation (%/month) [1] [%/month] | Purity loss (%/month) [2] [%/month] | DLS-SI Dimensionless [3] | DLS-SI precipitates [3] | ThT Assay Lag time [4] [h] |
| --- | --- | --- | --- | --- | --- |
| CCCC[C@H](NC(=O)[C@H](C)NC(=O)[C@@H](NC(=O)[C@H](CO)NC(=O)[C@H](Cc1ccc(O)cc1)NC(=O)[C@H](CC(=O)O)NC(=O)[C@H](CO)NC(=O)[C@@H](NC(=O)[C@H](Cc1ccccc1)NC(=O)[C@@H](NC(=O)CNC(=O)[C@H](CCC(=O)O)NC(=O)C(C)(C)NC(=O)[C@@H](N)Cc1ccc(O)cc1)[C@@H](C)O)[C@@H](C)CC)[C@@H](C)CC)C(=O)N[C@@H](CC(=O)O)C(=O)N[C@@H](CCCCN)C(=O)N[C@H](C(=O)N[C@@H](CCCNC(=N)N)C(=O)N[C@@H](CCC(N)=O)C(=O)N[C@@H](CCC(=O)O)C(=O)N[C@@H](CC(=O)O)C(=O)N[C@@H](Cc1ccccc1)C(=O)N[C@H](C(=O)N[C@@H](CCCCNC(=O)CC[C@H](NC(=O)CC[C@H](NC(=O)CC[C@H](NC(=O)C1CCC(CNC(=O)CCCCCCCCCCCCCCCCCCC(=O)O)CC1)C(=O)O)C(=O)O)C(=O)O)C(=O)N[C@@H](Cc1c[nH]c2ccccc12)C(=O)N[C@@H](CC(C)C)C(=O)N[C@@H](CC(C)C)C(=O)N[C@@H](C)C(=O)N[C@@H](CCC(N)=O)C(=O)N[C@@H](CCCCN)C(=O)NCC(=O)O)C(C)C)[C@@H](C)CC (stereo partly drawn) [Compound 10, N{Epsilon-24}-[(4S)-4-carboxy-4-[[(4S)-4-carboxy-4-[[(4S)-4-carboxy-4-[[4-[(19-carboxynonadecanoylamino)methyl]cyclohexanecarbonyl]amino]butanoyl]amino]-butanoyl]amino]butanoyl]-[Aib2,Nle14,Arg18,Glu20,Lys24]-hGIP(1-31)] (H-Y[Aib]EGTFISDYSIA[Nle]DKIRQEDFVK([γGlu-γGlu-γGlu-X1])WLLAQKG-OH; N-terminus and C-terminus assumed) | 1.50 | 4.80 | 1.7 | No | >45 |
| CCCC[C@H](NC(=O)[C@H](C)NC(=O)[C@@H](NC(=O)[C@H](CO)NC(=O)[C@H](Cc1ccc(O)cc1)NC(=O)[C@H](CC(=O)O)NC(=O)[C@H](CO)NC(=O)[C@@H](NC(=O)[C@H](Cc1ccccc1)NC(=O)[C@@H](NC(=O)CNC(=O)[C@H](CCC(=O)O)NC(=O)C(C)(C)NC(=O)[C@@H](Cc1ccc(O)cc1)NC(C)=O)[C@@H](C)O)[C@@H](C)CC)[C@@H](C)CC)C(=O)N[C@@H](CC(=O)O)C(=O)N[C@@H](CCCCN)C(=O)N[C@H](C(=O)N[C@@H](Cc1c[nH]cn1)C(=O)N[C@@H](CCC(N)=O)C(=O)N[C@@H](CCC(N)=O)C(=O)N[C@@H](CC(=O)O)C(=O)N[C@@H](Cc1ccccc1)C(=O)N[C@H](C(=O)N[C@@H](CCCCNC(=O)CC[C@H](NC(=O)CC[C@H](NC(=O)CC[C@H](NC(=O)C1CCC(CNC(=O)CCCCCCCCCCCCCCCCCCC(=O)O)CC1)C(=O)O)C(=O)O)C(=O)O)C(=O)N[C@@H](Cc1c[nH]c2ccccc12)C(=O)N[C@@H](CC(C)C)C(=O)N[C@@H](CC(C)C)C(=O)N[C@@H](C)C(=O)N[C@@H](CCC(N)=O)C(=O)N[C@@H](CCCCN)C(=O)N1CCC[C@H]1C(N)=O)C(C)C)[C@@H](C)CC (stereo partly drawn) [Compound 32, N{1}-acetyl,N{Epsilon-24}-[(4S)-4-carboxy-4-[[(4S)-4-carboxy-4-[[(4S)-4-carboxy-4-[[4-[(19-carboxynonadecanoylamino)methyl]cyclohexanecarbonyl]amino]butanoyl]-amino]butanoyl]amino]butanoyl]-[D-Tyr1,Aib2,Nle14,Lys24,Pro31]-hGIP(1-31) amide] (Ac-[dY][Aib]EGTFISDYSIA[Nle]DKIHQQDFVK([γGlu-γGlu-γGlu-X1])WLLAQKP-NH2) | 0.66 | 2.80 | 1.7 | No | >45 |
| Y[Aib]EGTFISDYSIALDKIHQQDFVK([AEEA-AEEA-γGlu-C18 diacid])WLLAQKGKKNDWKHNITQ [Compound 45, N{Epsilon-24}-[2-[2-[2-[[2-[2-[2-[[(4S)-4-carboxy-4-(17-carboxyheptadecanoylamino)butanoyl]amino]ethoxy]ethoxy]acetyl]amino]ethoxy]ethoxy]acetyl]-[Aib2,Leu14,Lys24]-hGIP] | 8.17 | 47.22 | 6.7 | No | >45 |

From patent US10604555B2, “GIP derivatives and uses thereof” (priority 2018, dated 2020)
